Results as given in patent US20050032738A1, “Method of treating cancer by conjunctive therapy with 2'-haloemethylidene derivatives and a S-phase or M-phase specific antineoplastic agent” (Merrell Pharmaceuticals Inc., priority 1992, published 2005).
Converted amounts (≈) assume the structure as drawn.

Key:
HeLa cells = assay: Antiproliferative activity against HeLa cells (MTT cell viability); settings: for IC50: Homo sapiens, HeLa, 72 h, read-out: Drug Alone IC50
B16 melanoma = assay: Antitumor activity against B16 melanoma in mice; type: in vivo; settings: B16 melanoma s.c. day 0, i.p. once daily, 101,731 5 mg/kg day 1-7, Ara-C 10 mg/kg day 7-14; for % Inhibition (tumor weight): day 15; for Tumor Weight (g) (Mean ± S.D.): tumors weighed day 15
Excerpt: Inject B16 melanoma cells (1×10^5 cells/mouse) subcutaneously on day 0. Administer compounds i.p. once daily as indicated. Sacrifice the animals on day 15, dissect the tumors and weigh.

Lewis lung carcinoma = assay: Antitumor activity against Lewis lung carcinoma in mice (tumor weight, pulmonary metastatic foci); type: in vivo; settings: i.p. once daily, 101,731 5 mg/kg day 1-7, Ara-C 10 mg/kg day 7-14; for % Inhibition (tumor weight) / Tumor Weight (g) (Mean ± S.D.): 3LL cells s.c. day 0; for % Inhibition (tumor weight) / % Inhibition (No. of foci) / No. of Foci (Mean ± S.D.): day 15; for Tumor Weight (g) (Mean ± S.D.): tumors weighed day 15; for % Inhibition (No. of foci) / No. of Foci (Mean ± S.D.): pulmonary metastatic foci
Excerpt: Inject 3 LL cells (1×10^5/mouse) s.c. on day 0. Administer compounds i.p., once daily as indicated. Sacrifice animals on day 15, dissect the tumors and weigh. Also count pulmonary metastatic foci.

SMILES	Drug + 101,731 IC50 (HeLa cells; HeLa cells pretreated with MDL 101,731 15 ng/mL for 24 hours, washed, then drug for 72 hours, MTT)	Drug Alone IC50 (HeLa cells; HeLa cells, 72 hours exposure to drug, MTT)	% Inhibition (tumor weight) (B16 melanoma)	Tumor Weight (g) (Mean ± S.D.) (B16 melanoma)	% Inhibition (tumor weight) (Lewis lung carcinoma)	Tumor Weight (g) (Mean ± S.D.) (Lewis lung carcinoma)	% Inhibition (No. of foci) (Lewis lung carcinoma)	No. of Foci (Mean ± S.D.) (Lewis lung carcinoma)	IC50 (HeLa cells)	Effect on the growth of the tumor cells (HeLa cells; MDL 101,731 alone, 15 ng/mL for 24 hours, HeLa cells)
Nc1ccn([C@@H]2O[C@H](CO)[C@@H](O)[C@@H]2O)c(=O)n1 [Ara-C, Cytosine Arabinoside]	3.2 µg/mL	13.7 µg/mL	0%	3.6 ± 0.8 g	0%	3.83 ± 0.8 g	0%	14.6 ± 5	–	–
CC[C@]1(O)C[C@@H]2CN(CCc3c([nH]c4ccccc34)[C@@](C(=O)OC)(c3cc4c(cc3OC)N(C)[C@H]3[C@@](O)(C(=O)OC)[C@H](OC(C)=O)[C@]5(CC)C=CCN6CC[C@]43[C@@H]65)C2)C1 [Vinblastine (VLB), Vinblastine]	–	–	–	–	–	–	–	–	86.7 µg/mL (≈ 107 µM)	–
O=c1[nH]cc(F)c(=O)[nH]1 [5-Fluorouracil (5Fu), 5-Fluorouracil]	–	–	–	–	–	–	–	–	41.1 µg/mL (≈ 316 µM)	–
Nc1ccn([C@@H]2O[C@H](CO)[C@@H](O)/C2=C\F)c(=O)n1 [101,731, (E)-2′-deoxy-2′-fluoromethylidenecytidine]	–	–	10%	2.4 ± 0.9 g	20%	2.8 ± 0.6 g	0%	15.5 ± 6	–	did not show any effect
